{"source": "patent US6379959B1", "about": "“Metalocarboxypeptidase inhibitors and derived molecules used as antitumor agents” (Universitat Autonoma de Barcelona, priority 1996, dated 2002)", "key": {"cell line Capan-1": {"system": "cell line Capan-1", "assay": "Studies of PCI disappearance from the culture medium", "assay_type": "cell-based, human", "settings": "50 μg/mL flask, 24 h; CPA inhibitory activity and ELISA", "experimental": "The studies of PCI disappearance were carried out in the cell line Capan-1 by employing various concentrations of PCI.\nIn three small culture flasks (of 25 cm^2), 5×10^5 cells were placed in each and they were cultivated in medium DMEM+10%FBS until the moment in which, through microscope observation, it could be seen that they had reached 75% of confluence. At this moment, the medium was removed and was substituted by new DMEM+10%FBS (50 μg/mL flask) and by medium with 200 μg/mL of PCI (flask 200 μg/mL). The three flasks were cultivated for a further 24 h. From each of these, samples of […] of culture medium were extracted at half hour intervals. In each of these samples, the existing concentration of PCI was determined by employing two methods (described in the bibliography cited in point 4.A.):\nTests of carboxypeptidase A inhibitory activity\nIn such tests, samples taken from the control flask at the same intervals were used as blanks.\nOne of the ELISAs that was done with the samples coming from the 200 μg/mL flask was carried out under special conditions in the first step (fixation of the antigens); concretely, by using a concentration of 0.5 M NaCl."}, "[1]": {"system": "ribonuclease secreted by Capan-1", "assay": "Ribonuclease secretion and glycosylation pattern (zymogram)", "assay_type": "cell-based, human", "settings": "PCI 5 μg/mL, pre and postadhesion; DMEM + BMS 10%", "excerpt": "To verify whether the PCI when affecting cell growth may provoke metabolic changes too, we analysed the changes in a secreted protein, ribonuclease, in the human pancreatic adenocarcinoma cell line Capan-1. Apart from the mentioned material required for cell culture, this analysis was based on the detection of ribonuclease activity by means of the electrophoretic analysis in activity gels (zymograms) (Bravo, J. et al (1994) Anal Biochem., 219: 82-86).\nWith this aim in mind, the culture medium of the proliferation tests of Section 4.B.1 was taken. Thus, a culture medium of control cells was provided for cells treated with PCI from the beginning (preanchorage) and for cells treated once they had adhered to the culture surface (postanchorage). Given the fact that the FBS contains bovine ribonuclease which would interfere in our research, these cells grew in DMEM supplemented with BMS at 10%. The procedure was as follows: […]\nAt the moment of the analyses, the media were unfrozen in order to have an aliquot of each sample. The concentration of total protein was determined by means of the Bradford method (Bradford, M. M. (1976) Anal. Biochem., 72: 248-254). […]\nThe analysis of ribonuclease secretion was done with Capan-1. […] Using the electrophoretic analysis of ribonuclease activity, the pattern of glycosylation of this protein could be observed and a certain quantification could be made."}, "[2]": {"system": "Int-2 murine insulinoma cell line", "assay": "Proliferation of Int-2 cells pretreated with PCI", "assay_type": "cell-based", "settings": "pretreatment 50 μg/mL of PCI, 7, 20 and 30 days; treatments 7, 8 and 5 days", "experimental": "The analysed cell lines were Capan-1, already described, and Int-2. This latter being a murine insulinoma cell line derived from transgenic mice developed in the lab of Dr. M. Frazier. The medium employed for the growth of both lines was DMEM+10%FBS and the culture techniques that were used were identical to those previously described. In the case of the Int-2 cell line, only proliferation tests were performed. They were carried out in the same way as that described in the case of Capan-1, with the unique difference that the number of cells that was put per well in the plate of 96 was 500 instead of 2,000."}}, "note": "Positions of bridges follow the written chain, without caps; N, C: chain ends. No end group written: not given here."}
{"substance": "PCI: potato carboxypeptidase inhibitor, isoform IIa, obtained by recombinant DNA techniques in E. coli (SEQ ID NO.2) (EQHADPICNKPCKTHDDCSGAWFCQACWNSARTCGPYVG; disulfide 12-27, 18-34, 8-24)", "values": [{"measurement": "internalization (disappearance of PCI from the culture medium)", "setting": "cell line Capan-1", "value": "clearly internalized by the cells"}, {"measurement": "secretion and glycosylation of ribonuclease compared to the control group", "setting": "[1]", "value": "higher secretion of ribonuclease with a higher degree of glycosylation"}, {"measurement": "growth of pretreated cells cultured later in the absence of the protein compared to non-pretreated cells", "setting": "[2]", "value": "approximately half"}]}
